Where a SMILES comes first, the peptide text is derived from it. Bridges are numbered along the chain shown (N, C = ends). [ ]: non-standard residue; d: D form. The star is where a group is joined. hPhe(3,5-F2-4-CF3) = N[C@@H](CCc1cc(F)c(C(F)(F)F)c(F)c1)C(=O)O; NPrPhe(4-CF3) = CCCN[C@@H](Cc1ccc(C(F)(F)F)cc1)C(=O)O; NMeGly(cPent) = CN[C@H](C(=O)O)C1CCCC1; NMeD = CN[C@@H](CC(=O)O)C(=O)O; Ac4c(3-oxa) = NC1(C(=O)O)COC1; NMeL = CN[C@@H](CC(C)C)C(=O)O; Morpholide = C1CN(*)CCO1; Sar = CNCC(=O)O
Legend:
[1] = molecular target: GDP-bound NRAS wild-type protein (Homo sapiens, UniProt P01111); assay: Binding to NRAS by surface plasmon resonance (SPR), Single Cycle Kinetics
Sequence of GDP-bound NRAS wild-type protein (P01111 whole entry): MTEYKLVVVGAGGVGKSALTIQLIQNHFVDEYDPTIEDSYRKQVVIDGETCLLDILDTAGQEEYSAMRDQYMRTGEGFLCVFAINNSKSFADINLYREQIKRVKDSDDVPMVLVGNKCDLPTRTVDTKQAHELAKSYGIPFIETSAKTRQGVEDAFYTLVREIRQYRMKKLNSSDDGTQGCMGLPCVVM

[2] = molecular target: GDP-bound HRAS wild-type protein (Homo sapiens, UniProt P01112); assay: Binding to HRAS by surface plasmon resonance (SPR), Single Cycle Kinetics
Sequence of GDP-bound HRAS wild-type protein (P01112 whole entry): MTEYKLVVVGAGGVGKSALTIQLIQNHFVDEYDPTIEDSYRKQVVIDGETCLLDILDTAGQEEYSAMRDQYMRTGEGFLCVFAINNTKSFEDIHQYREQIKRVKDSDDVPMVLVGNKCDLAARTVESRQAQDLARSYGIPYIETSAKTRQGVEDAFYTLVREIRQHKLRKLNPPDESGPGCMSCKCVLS

[3] = SPR, GDP-bound wild-type proteins

SMILES: CCC[C@H]1C(=O)N[C@@H]([C@@H](C)CC)C(=O)N(C)CC(=O)N(C)[C@H]2CCCCCN(C2=O)[C@@H](Cc2ccc(C(F)(F)F)cc2)C(=O)N(C)CC(=O)N[C@@H](CCc2cc(F)c(C(F)(F)F)c(F)c2)C(=O)N2C[C@H](OCC)C[C@H]2C(=O)NC2(CCC2)C(=O)N(C)[C@@H](C2CCCC2)C(=O)N(C)[C@H](C(=O)N2CCOCC2)CC(=O)N1C [PP0679]
- NRAS/KRAS (ratio of KD value with respect to GDP-bound NRAS wild-type protein to KD value with respect to KRAS) ([1]; SPR): B (a compound having 3 or more and less than 10 is denoted as B)
- HRAS/KRAS (ratio of KD value with respect to GDP-bound HRAS wild-type protein to KD value with respect to KRAS) ([2]; SPR): B (a compound having 3 or more and less than 10 is denoted as B)

SMILES: CCO[C@@H]1C[C@H]2C(=O)NC3(CCC3)C(=O)N(C)[C@@H](C3CCCC3)C(=O)N(C)[C@H](C(=O)N(C)C)CC(=O)N(C)[C@@H](CC3CCCC3)C(=O)N[C@@H]([C@@H](C)CC)C(=O)N(C)CC(=O)N(C)[C@H]3C/C=C\CCN(C3=O)[C@@H](Cc3ccc(C)cc3)C(=O)N(C)CC(=O)N[C@@H](CCc3cc(C)c(C(F)F)c(F)c3)C(=O)N2C1 [PP2676]
- NRAS/KRAS (ratio of KD value with respect to GDP-bound NRAS wild-type protein to KD value with respect to KRAS) ([1]; class symbols): A (a compound having 10 or more and less than 20 is denoted as A)
- HRAS/KRAS (ratio of KD value with respect to GDP-bound HRAS wild-type protein to KD value with respect to KRAS) ([2]; class symbols): A (a compound having 10 or more and less than 20 is denoted as A)

SMILES: CCC[C@H]1C(=O)N[C@@H]([C@@H](C)CC)C(=O)N(C)CC(=O)N(C)[C@H]2C/C=C\CCN(C2=O)[C@@H](Cc2ccc(C)cc2)C(=O)N(C)CC(=O)N[C@@H](CCc2ccc(C(F)(F)F)c(OC)c2)C(=O)N2C[C@@H](C)C[C@H]2C(=O)N(C)C2(CCC2)C(=O)N(C)[C@@H](C2CCCC2)C(=O)N(C)[C@H](C(=O)N(C)C)CC(=O)N1C [PP2364]
- NRAS/KRAS (ratio of KD value with respect to NRAS to KD value with respect to KRAS) ([1]; SPR, GDP-bound NRAS wild-type vs GDP-bound KRAS wild-type): A (a compound having 10 or more and less than 20 is denoted as A)
- HRAS/KRAS (ratio of KD value with respect to HRAS to KD value with respect to KRAS) ([2]; SPR, GDP-bound HRAS wild-type vs GDP-bound KRAS wild-type): B (a compound having 3 or more and less than 10 is denoted as B)

SMILES: CCC[C@H]1C(=O)N[C@@H]([C@@H](C)CC)C(=O)N(C)CC(=O)N(C)[C@H]2C/C=C\CCN(C2=O)[C@@H](Cc2ccc(C(F)(F)F)cc2)C(=O)N(C)CC(=O)N[C@@H](CCc2ccc(C(F)(F)F)c(Cl)c2)C(=O)N2C[C@H](OCC)C[C@H]2C(=O)NC2(CC(C)(C)C2)C(=O)N(C)[C@@H](CC(C)C)C(=O)N(C)[C@H](C(=O)N(C)C)CC(=O)N1C [PP2977]
- NRAS/KRAS (ratio of KD value with respect to GDP-bound NRAS wild-type protein to KD value with respect to KRAS) [1, 3]: A (a compound having 10 or more and less than 20 is denoted as A)
- HRAS/KRAS (ratio of KD value with respect to GDP-bound HRAS wild-type protein to KD value with respect to KRAS) [2, 3]: A (a compound having 10 or more and less than 20 is denoted as A)

SMILES: CCC[C@H]1C(=O)N[C@@H]([C@@H](C)CC)C(=O)N(C2CC2)CC(=O)N(C)[C@H]2C/C=C\CCN(C2=O)[C@@H](Cc2ccc(C)cc2)C(=O)N(C)CC(=O)N[C@@H](CCc2cc(F)c(C(F)(F)F)c(F)c2)C(=O)N2C[C@H](OCC)C[C@H]2C(=O)N(C)C2(CCC2)C(=O)N(C)[C@@H](C2CCCC2)C(=O)N(C)[C@H](C(=O)N2CCCC2)CC(=O)N1C [PP3113, (2S,8S,12R,14S,20S,23S,27S,30S,36S,38Z)-20-cyclopentyl-32-cyclopropyl-8-[2-[3,5-difluoro-4-(trifluoromethyl)phenyl]ethyl]-12-ethoxy-4,16,19,22,26,35-hexamethyl-30-[(1S)-1-methylpropyl]-27-propyl-2-(p-tolylmethyl)-23-(pyrrolidine-1-carbonyl)spiro[1,4,7,10,16,19,22,26,29,32,35-undecazatricyclo[34.5.1.0^10,14]dotetracont-38-ene-17,1′-cyclobutane]-3,6,9,15,18,21,25,28,31,34,42-undecone]
- NRAS/KRAS (ratio of KD value with respect to GDP-bound NRAS wild-type protein to KD value with respect to KRAS) [1, 3]: A (a compound having 10 or more and less than 20 is denoted as A)
- HRAS/KRAS (ratio of KD value with respect to GDP-bound HRAS wild-type protein to KD value with respect to KRAS) [2, 3]: A (a compound having 10 or more and less than 20 is denoted as A)

SMILES: CCCN1C(=O)CN(C)C(=O)CN(C)C(=O)[C@H]([C@@H](C)CC)NC(=O)[C@H](CC(C)C)N(C)C(=O)C[C@@H](C(=O)N2CCOCC2)N(C)C(=O)[C@H](C2CCCC2)N(C)C(=O)C2(COC2)NC(=O)[C@@H]2CCCN2C(=O)[C@H](CCc2cc(F)c(C(F)(F)F)c(F)c2)NC(=O)CN(C)C(=O)[C@@H]1Cc1ccc(C(F)(F)F)cc1 [PP0765] ([NMeL]I[Sar][Sar][NPrPhe(4-CF3)][Sar][hPhe(3,5-F2-4-CF3)]P[Ac4c(3-oxa)][NMeGly(cPent)][NMeD]-Morpholide; lactam N-11)
- NRAS/KRAS (ratio of KD value with respect to GDP-bound NRAS wild-type protein to KD value with respect to KRAS) ([1]; SPR): B (a compound having 3 or more and less than 10 is denoted as B)
- HRAS/KRAS (ratio of KD value with respect to GDP-bound HRAS wild-type protein to KD value with respect to KRAS) ([2]; SPR): C (A compound having a KD ratio of 0.1 or more and less than 3 is denoted as C)

SMILES: CCO[C@@H]1C[C@H]2C(=O)NC3(CCC3)C(=O)N(C)[C@@H](C3CCCC3)C(=O)N(C)[C@H](C(=O)N(C)C)CC(=O)N(C)[C@@H](CC(C)C)C(=O)N[C@@H]([C@@H](C)CC)C(=O)N(C)CC(=O)N(C)[C@H]3CCCCCN(C3=O)[C@@H](Cc3ccc(C(F)(F)F)cc3)C(=O)N(C)CC(=O)N[C@@H](CCc3cc(F)c(C(F)(F)F)c(F)c3)C(=O)N2C1 [PP0469]
- NRAS/KRAS (ratio of KD value with respect to GDP-bound NRAS wild-type protein to KD value with respect to KRAS) ([1]; SPR): B (a compound having 3 or more and less than 10 is denoted as B)
- HRAS/KRAS (ratio of KD value with respect to GDP-bound HRAS wild-type protein to KD value with respect to KRAS) ([2]; SPR): B (a compound having 3 or more and less than 10 is denoted as B)
